{
  "source": "ChEMBL document CHEMBL1142591",
  "about": "“Scalusamides A-C, new pyrrolidine alkaloids from the marine-derived fungus Penicillium citrinum” (2005)",
  "key": {"Micrococcus luteus": {"tested_on": "Micrococcus luteus", "experiment": "Antibacterial activity against Micrococcus luteus", "type": "functional"}, "Cryptococcus neoformans": {"tested_on": "Cryptococcus neoformans", "experiment": "Antifungal activity against Cryptococcus neoformans", "type": "functional"}},
  "data": [
    {"smiles": "C/C=C/CCCCC(=O)C(C)C(=O)N1CCC[C@@H]1CO", "note": "(some centres not stated) [SCALUSAMIDE A]", "values": [
      {"measurement": "MIC", "setting": "Micrococcus luteus", "value": 33.3, "unit": "µg/mL"},
      {"measurement": "MIC", "setting": "Cryptococcus neoformans", "value": 16.7, "unit": "µg/mL"}
    ]}
  ]
}
